Measured values from patent publication US20100086520A1, “Compositions, Kits and Uses For Protecting The Skin Against Pathogenic Microorganisms” (OrganoBalance GmbH, priority 2006, published 2010).
Bridge positions count the residues as written; N and C are the ends. Square brackets hold non-standard residues; d marks the D form. Peptide text beside a SMILES is read from it. * marks the point of attachment. Ileψ(thiazoline)Cys = CC[C@H](C)[C@H](N)C1=N[C@H](C(=O)*)CS1; dOrn = NCCC[C@@H](N)C(=O)O

Key:
[1] = tested on: Staphylococcus aureus (DSM346); assay: in-vitro-hole plate assay, growth inhibition of S. aureus in comparison to bacitracin and erythromycin (Example 12); type: cell-based; conditions: BHI agar, pre-cut holes; antibiotics at different concentrations, defined numbers of Lactobacillus cells; FIG. 10A/10B
Excerpt: The degree of growth inhibition of the microorganism(s) of the transient pathogenic skin micro flora in comparison to the inhibition of growth of at least one such microorganism after the use of an antibiotic can preferably be observed in vitro, more preferably in an assay in which a microorganism according to aspect (ii) of the invention, as described herein above, is contacted with one or more microorganisms of the transient pathogenic skin micro flora and the growth of the(se) microorganism(s) of the transient pathogenic skin micro flora is determined. Most preferably, the comparison of growth inhibition can be determined in an “in vitro hole plate assay” as described in the Examples and mentioned herein above. […]
This effect has been compared to commercial antibiotic cream preparations of bacitracin and erythromycin. […] The diameter of the inhibition zones has been measured and the area of inhibition has been calculated thereof. […]

Candida albicans = conditions: in vivo; cited from earlier work
resident flora = conditions: infants, after treatment with the antibiotic; cited from earlier work

Row | Molecule | growth inhibition of the indicator strain S. aureus (inhibition zone, area of inhibition) [1] | increase of the pathogenic yeast Candida albicans (Candida albicans) | repression of the resident flora (resident flora)
1 | CC[C@H]1OC(=O)[C@H](C)[C@@H](O[C@H]2C[C@@](C)(OC)[C@@H](O)[C@H](C)O2)[C@H](C)[C@@H](O[C@@H]2O[C@H](C)C[C@H](N(C)C)[C@H]2O)[C@](C)(O)C[C@@H](C)C(=O)[C@H](C)[C@@H](O)[C@]1(C)O [erythromycin] | growth inhibition of the indictator strain S. aureus has been observed |  | 
2 | Lactobacillus delbrückii ssp. delbrückii OB-LB-Sa3 | growth inhibition of S. aureus |  | 
3 | CC[C@H](C)[C@H](N)C1=N[C@H](C(=O)N[C@@H](CC(C)C)C(=O)N[C@H](CCC(=O)O)C(=O)N[C@H](C(=O)N[C@H]2CCCCNC(=O)[C@H](CC(N)=O)NC(=O)[C@@H](CC(=O)O)NC(=O)[C@H](Cc3cnc[nH]3)NC(=O)[C@@H](Cc3ccccc3)NC(=O)[C@H]([C@@H](C)CC)NC(=O)[C@@H](CCCN)NC2=O)[C@@H](C)CC)CS1 [bacitracin] ({Ileψ(thiazoline)Cys}-L[dE]IK[dOrn]I[dF]H[dD]N; lactam 4-C) | growth inhibition of the indictator strain S. aureus has been observed |  | 
4 | CC1(C)S[C@@H]2[C@H](NC(=O)[C@H](N)c3ccc(O)cc3)C(=O)N2[C@H]1C(=O)O [amoxicillin] |  | more than a fourteen-fold increase | about 50%
